Assay [1] deals with REL-A (p65) nuclear translocation in HeLa cells. In words: REL-A nuclear translocation assay (classical NF-kB signaling), high content imaging. The assay is classed as cell-based. To be noted: Homo sapiens, compounds 4.5 hours, then 10 ng/mL TNF-α for 30 minutes, read-out: REL-A HeLa Transloc Assay (IC50). The protocol: (§1) (2) A second set of cell assay are used to define the selectivity of NIK inhibitors toward inhibition of classical vs. non-classical NF-kB signaling and rely on quantification of the nuclear translocation of p52 (NF-kB2) and REL-A (p65) using high content cellular imaging. For the p52 (non-classical NF-kB signaling) nuclear translocation assay, HeLa cells are treated with different concentrations of compounds (0.2% DMSO final) in medium containing 10% fetal bovine serum and then stimulated with 100 ng/mL, of an anti-lymphotoxin beta receptor antibody (R&D Systems) for 5 hours. In the REL-A nuclear translocation assay, HeLa cells are incubated with compounds (0.2% DMSO final) for 4.5 hours in medium containing 10% fetal bovine serum before stimulating them with 10 ng/mL tumor necrosis factor (TNF)-α (R&D Systems) for 30 minutes. Cells are fixed with 4% paraformaldehyde, permeabilized by adding 0.1% Triton X-100 in phosphate buffered saline, and then are incubated with either 2 ug/mL anti-p52 antibody (Millipore) or 400 ng/mL anti-REL-A (p65) antibody (Santa Cruz Biotechnology). Finally, the cells are incubated with an Alexa488-labeled secondary antibody (Invitrogen) and DRAQ5 DNA stain (Biostatus). Imaging is carried out using an Opera reader (Perkin Elmer) and data are analyzed with the aid of Acapella software (Perkin Elmer). The p52 or REL-A translocation into the nucleus is quantified by the ratio of the nuclear to cytoplasmic signal intensity. […] The compounds in listed in Table 1 have the corresponding inhibitory value (IC50 in micromolar) for NIK p52 Translocation Assay as set forth in Table 2.
The compounds in listed in Table 1 has the corresponding inhibitory value (IC50 in micromolar) for NIK RelA Translocation Assay as set forth in Table 2.

Assay [2] deals with p52 (NF-kB2) nuclear translocation in HeLa cells. The experiment in a line: p52 nuclear translocation assay (non-classical NF-kB signaling), high content imaging. To be noted: 100 ng/mL anti-lymphotoxin beta receptor antibody for 5 hours, read-out: p52 HeLa Transloc Assay (IC50). Format: cell-based. The protocol: as §1
Assay [3] concerns the target nuclear factor-kappa B (NF-kB)-inducing kinase (NIK) (Homo sapiens (Human), UniProt Q99558). The experiment in a line: NIK Enzyme Inhibition Assay (Transcreener ADP fluorescence polarization). Format: biochemical. The following applies: read-out: NIK ADP-FP (Ki uM). The method, boiled down:
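Baculovirus/insect-cell-expressed NIK (0.2-1 nM) incubated with compounds 1-3.5 h at 10 uM ATP. Buffer: 50 mM HEPES pH 7.2, 10 mM MgCl2, 2 mM DTT, 1% DMSO. ADP detected by Transcreener fluorescence polarization (ADP antibody, AlexaFluor 633 tracer) after EDTA quench.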
For orientation: In fluorescence polarisation assays a small probe gives low polarisation when free and higher when bound to something large.

[4] abbreviates: purified NIK 0.2-1 nM, 10 uM ATP, Morrison's quadratic equation.

Like-named read-outs stand apart in the source and are kept apart here.

nuclear factor-kappa B (NF-kB)-inducing kinase (NIK), sequence (Q99558 whole entry): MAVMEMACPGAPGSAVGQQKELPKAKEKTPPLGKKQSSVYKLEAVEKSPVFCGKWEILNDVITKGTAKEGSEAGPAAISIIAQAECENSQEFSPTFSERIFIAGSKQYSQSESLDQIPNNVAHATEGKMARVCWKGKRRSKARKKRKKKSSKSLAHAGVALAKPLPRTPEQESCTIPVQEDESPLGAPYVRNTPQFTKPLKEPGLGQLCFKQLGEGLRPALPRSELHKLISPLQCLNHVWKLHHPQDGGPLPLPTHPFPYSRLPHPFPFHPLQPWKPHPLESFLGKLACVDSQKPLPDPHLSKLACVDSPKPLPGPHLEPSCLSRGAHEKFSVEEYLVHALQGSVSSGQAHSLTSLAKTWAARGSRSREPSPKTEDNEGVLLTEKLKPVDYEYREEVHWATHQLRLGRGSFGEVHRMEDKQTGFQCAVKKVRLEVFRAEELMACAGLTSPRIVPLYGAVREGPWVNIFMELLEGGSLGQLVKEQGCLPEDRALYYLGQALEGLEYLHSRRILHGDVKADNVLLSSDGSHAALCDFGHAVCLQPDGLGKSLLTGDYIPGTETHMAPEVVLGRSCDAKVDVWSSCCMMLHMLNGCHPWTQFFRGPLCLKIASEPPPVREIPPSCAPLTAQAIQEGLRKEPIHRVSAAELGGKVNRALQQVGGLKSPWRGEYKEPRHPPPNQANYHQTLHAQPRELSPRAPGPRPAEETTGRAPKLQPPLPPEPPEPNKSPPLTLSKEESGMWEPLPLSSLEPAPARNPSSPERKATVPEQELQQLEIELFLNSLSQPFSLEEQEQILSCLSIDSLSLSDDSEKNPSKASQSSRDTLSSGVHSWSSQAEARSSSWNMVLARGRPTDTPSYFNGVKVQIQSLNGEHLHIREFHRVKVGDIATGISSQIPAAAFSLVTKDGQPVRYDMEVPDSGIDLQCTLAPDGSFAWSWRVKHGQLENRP

Take `Cn1c(C(N)=O)nc2c1C1CC(C1)c1cc(F)c(C#CC(C)(C)O)cc1-2`: the IC50 is above 20000 nM in assay [1] (HeLa) and 286 nM in assay [2] (Homo sapiens, HeLa, 5 h). The Ki in assay [3] (setting [4]) came out at 0.0078 µM.

`CC(C)(O)C#Cc1cc2c(cc1F)C1CC(C1)n1c-2nc(C(N)=O)c1-c1nc(C2CC2)n[nH]1`: the concentration for half-maximal inhibition (IC50) in assay [1] (HeLa) was above 20000 nM; in assay [2] (Homo sapiens, HeLa, 5 h), 3600 nM. For the same compound, in assay [3] (setting [4]), the Ki was 0.0013 µM.

For `CN1CC[C@@](O)(C#Cc2ccc3c(c2)-c2nc(C(N)=O)cn2C2CC3C2)C1=O`, the IC50 in assay [1] (HeLa) was determined as 20000 nM; in assay [2] (Homo sapiens, HeLa, 5 h) it was 1500 nM. In addition, the Ki in assay [3] is 0.0012 µM.

As for `CNC(=O)c1c(C(N)=O)nc2n1CCOc1ccc(C#CC3(O)CCC3)cc1-2`, the IC50 is above 20000 nM in assay [1] (HeLa) and 727 nM in assay [2] (Homo sapiens, HeLa, 5 h). For the same compound, the inhibitory constant (Ki) in assay [3] (setting [4]) stood at 0.0022 µM.

Take `Cc1c(C(N)=O)nc2n1C1CC(C1)c1cc(F)c(C#C[C@]3(O)CCN(C)C3=O)cc1-2` [Example 331, 9-fluoro-10-[2-[(3R)-3-hydroxy-1-meth-yl-2-oxo-pyrrolidin-3-yl]ethynyl]-3-meth-yl-5,6,7,12-tetrahydro-5,7-methano-benzo[c]imidazo[1,2-a]azepine-2-carboxamide]: the half-maximal inhibitory concentration (IC50) in assay [1] (HeLa) was above 20000 nM; in assay [2] (Homo sapiens, HeLa, 5 h), 1000 nM.

Consider `CC(C)(O)C#Cc1cc2c(cc1F)C1CC(C1)c1c-2nc(C(N)=O)n1C(F)F` [Example 411, 9-fluoro-10-(3-hydroxy-3-methyl-but-1-ynyl)-3-(pyrrolidin-1-ylmethyl)-5,6,7,12-tetrahydro-5,7-methanobenzo[c]imidazo[1,2-a]azepine-2-carboxamide], for which the concentration for half-maximal inhibition (IC50) in assay [1] (HeLa) was found to be 20000 nM; in assay [2] (Homo sapiens, HeLa, 5 h), 73.2 nM.

Take `Cc1cc([C@](C)(O)C#Cc2cc3c(cc2F)OCCn2c-3nc(C(N)=O)c2C(=O)NCC#N)no1` [Example 107]: the IC50 came out at 20000 nM in assay [1] and 83.1 nM in assay [2] (Homo sapiens).

Regarding `Cc1nc([C@](C)(O)C#Cc2ccc3c(c2)-c2nc(C(N)=O)c(Cc4ccnn4C)n2C2CC3C2)no1` [Example 260, 10-[(3R)-3-hydroxy-3-(5-methyl-1,2,4-oxadiazol-3-yl)but-1-ynyl]-3-[(2-methyl-pyrazol-3-yl)methyl]-5,6,7,12-tetrahydro-5,7-methanobenzo[c]imidazo[1,2-a]aze-pine-2-carboxamide], the half-inhibitory concentration (IC50) is above 20000 nM in assay [1] (HeLa) and 4800 nM in assay [2] (Homo sapiens, HeLa, 5 h).

On to `CNC(=O)c1c(C(N)=O)nc2n1C1CC(C1)c1ccc(C#CC3(O)CCC3)cc1-2` [Example 361, 10-[2-(1-hydroxycyclobutyl)ethynyl]-N3-methyl-5,6,7,12-tetrahydro-5,7-meth-anobenzo[c]imidazo[1,2-a]azepine-2,3-dicarboxamide], for which the IC50 is above 20000 nM in assay [1] (HeLa) and 409 nM in assay [2] (Homo sapiens, HeLa, 5 h).

With `Cc1cc([C@](C)(O)C#Cc2ccc3c(c2)-n2nc(C(N)=O)cc2[C@H](F)CO3)no1`, the IC50 in assay [1] (HeLa) was above 20000 nM; in assay [2] (Homo sapiens, HeLa, 5 h), 379 nM.

As to `COC[C@](C)(O)C#Cc1ccc2c(c1)-c1nc(C(N)=O)sc1[C@H](F)CO2`, the concentration for half-maximal inhibition (IC50) in assay [1] (HeLa) turned out to be 15300 nM; in assay [2] (Homo sapiens, HeLa, 5 h), 682 nM.

Consider `Cc1cc([C@](C)(O)C#Cc2cc3c(cc2F)OCCc2sc(C(N)=O)nc2-3)no1` [Example 39], for which the IC50 is 20000 nM in assay [1] (HeLa) and 38 nM in assay [2] (Homo sapiens, HeLa, 5 h).

As to `CN1CC[C@@](O)(C#Cc2cc3c(cc2F)C2CC(C2)c2c-3nc(C(N)=O)n2C)C1=O` (mixture of isomers) [Example 381, (±)-10-[3-hydroxy-3-(2-pyridyl)but-1-ynyl]-5,6,7,12-tetrahydro-5,7 methanobenzo[c]imidazo[1,2-a]azepine-2-carboxamide], the IC50 in assay [1] (HeLa) was above 20000 nM; in assay [2] (Homo sapiens, HeLa, 5 h), 285 nM.

For `CN1CC[C@@](O)(C#Cc2ccc3c(c2)-n2nc(C(N)=O)c(C(F)(F)F)c2CCO3)C1=O` (racemic) [Example 500], the IC50 in assay [1] (HeLa) is above 20000 nM; in assay [2] (Homo sapiens, HeLa, 5 h), 381 nM.

As to `Cc1nc([C@](C)(O)C#Cc2ccc3c(c2)-c2nc(C(N)=O)sc2C2CC3C2)no1` [Example 450, (R)-9-(3-hydroxy-3-(5-methyl-1,2,4-oxa-diazol-3-yl)but-1-yn-1-yl)-5,6-dihydro-4H-4,6-methanobenzo[6,7]cyclo-hepta[1,2-d]thiazole-2-carboxamide], the concentration for half-maximal inhibition (IC50) was above 20000 nM in assay [1] (HeLa) and 459 nM in assay [2] (Homo sapiens, HeLa, 5 h).

With `CN1CC[C@@](O)(C#Cc2ccc3c(c2)-n2nc(C(N)=O)cc2C2(CC2)CO3)C1=O` [Example 460], the IC50 in assay [1] (HeLa) is above 20000 nM; in assay [2] (Homo sapiens, HeLa, 5 h), 252 nM.

For the compound `Cc1nc([C@](C)(O)C#Cc2cc3c(cc2F)OC[C@@H](N(C)C)c2sc(C(N)=O)nc2-3)no1` (racemic) [Example 256], the IC50 in assay [1] (HeLa) was above 20000 nM; in assay [2], 2000 nM; in assay [2] (Homo sapiens, HeLa, 5 h), 2900 nM.

In the case of `NC(=O)c1nc2c(s1)CCOc1cc(F)c(C#CC3(O)CCCC3)cc1-2` [Example 40, 8-fluoro-9-(1-hydroxy-cyclopentyl-ethynyl)-4,5-dihydro-6-oxa-3-thia-1-aza-benzo[e]azulene-2-carboxylic acid amide], the half-maximal inhibitory concentration (IC50) in assay [1] turned out to be 20000 nM; in assay [2] (Homo sapiens) it was 68 nM.

Turning to `CNC(=O)c1c(C(N)=O)nc2n1CCOc1cc(F)c(C#CC3(O)CCC3)cc1-2` [Example 362, 9-fluoro-10-[2-(1-hydroxycyclobutyl)ethy-nyl]-N3-methyl-5,6-dihydroimidazo[1,2-d][1,4]benzoxazepine-2,3-dicarbox-amide], the half-maximal inhibitory concentration (IC50) in assay [1] (HeLa) was above 20000 nM; in assay [2] (Homo sapiens, HeLa, 5 h) it was 143 nM.

Regarding `Cn1c(C(N)=O)nc2c1C1CC(C1)c1ccc(C#C[C@@](C)(O)c3ncccn3)cc1-2` [Example 427, 9-fluoro-10-(3-hydroxy-3-methyl-but-1-ynyl)-N3-methyl-5,6,7,12-tetrahydro-5,7-methanobenzo[c]imidazo[1,2-a]azepine-2,3-dicarboxamide], the IC50 is above 20000 nM in assay [1] (HeLa) and 453 nM in assay [2] (Homo sapiens, HeLa, 5 h).

Turning to `CNC(=O)c1c(C(N)=O)nc2n1C1CC(C1)c1ccc(C#CC3(O)CCCC3)cc1-2` (racemic), the IC50 in assay [1] (HeLa) is above 20000 nM; in assay [2] (Homo sapiens, HeLa, 5 h), 709 nM.

`CC(C)(O)C#Cc1cc2c(cc1F)C1CC(C1)n1c-2nc(C(N)=O)c1CNC(=O)C1CC1` (racemic): the IC50 in assay [1] (HeLa) was above 20000 nM; in assay [2] (Homo sapiens, HeLa, 5 h), 1400 nM.

As for `CNC(=O)c1c(C(N)=O)nc2n1CCOc1ccc(C#C[C@]3(O)CCN(C)C3=O)cc1-2` (racemic) [Example 419, (±)-9-fluoro-10-(3-hydroxy-3-methyl-but-1-ynyl)-3-[(3-hydroxypyrrolidin-1-yl)methyl]-5,6,7,12-tetrahydro-5,7-methanobenzo[c]imidazo[1,2-a]azepine-2-carboxamide], the IC50 in assay [1] (HeLa) is above 20000 nM; in assay [2] (Homo sapiens, HeLa, 5 h), 317 nM.

For `CN1CCC[C@@](O)(C#Cc2ccc3c(c2)-c2nc(C(N)=O)sc2C(F)(F)CO3)C1=O` (racemic), the half-maximal inhibitory concentration (IC50) in assay [1] (HeLa) is above 20000 nM; in assay [2] (Homo sapiens, HeLa, 5 h) it was 184 nM.

Turning to `Cc1nc2ccccc2n1Cc1c(C(N)=O)nc2n1CCOc1ccc(C#C[C@]3(O)CCN(C)C3=O)cc1-2` [Example 416, 9-fluoro-10-[(3R)-3-hydroxy-3-(5-methylisoxazol-3-yl)but-1-ynyl]-3-[1-(2-hydroxy-2-methyl-propyl)pyrazol-4-yl]-5,6,7,12-tetrahydro-5,7-methanobenzo[c]imidazo[1,2-a]azepine-2-carboxamide], the half-inhibitory concentration (IC50) in assay [1] (HeLa) was above 20000 nM; in assay [2] (Homo sapiens, HeLa, 5 h), 3200 nM.

`CN1CC[C@@](O)(C#Cc2cc3c(cc2F)C2CC(C2)n2c-3nc(C(N)=O)c2C2CC2)C1=O` [Example 333, 3-cyclopropyl-9-fluoro-10-[2-[(3R)-3-hy-droxy-1-methyl-2-oxo-pyrrolidin-3-yl]ethynyl]-5,6,7,12-tetrahydro-5,7-meth-anobenzo[c]imidazo[1,2-a]azepine-2-carboxamide]: the concentration for half-maximal inhibition (IC50) is above 20000 nM in assay [1] (HeLa) and 2200 nM in assay [2] (Homo sapiens, HeLa, 5 h).

Regarding `NC(=O)c1cn2c(n1)-c1cc(C#CC3(O)CCC3)ccc1C1CC2C1` [Example 369, 10-[2-(1-hydroxycyclobutyl)ethynyl]-5,6,7,12-tetrahydro-5,7-methanobenzo[c]imi-dazo[1,2-a]azepine-2-carboxamide], the IC50 in assay [1] was above 20000 nM; in assay [2] (Homo sapiens), 3700 nM.

In general, IC50 refers to the point on the concentration scale where inhibition reaches its midpoint. Broadly, the Ki is a dissociation constant, usually derived from enzyme kinetics or from competition with a known ligand.

The values are drawn from patent US9034866B2 (Genentech, Inc., priority 2012, dated 2015).
